In patent US20260201008A1, “SECRETIN-DERIVED GLP1R SELECTIVE AGONISTS” (GUBRA A/S, priority 2023, published 2026):
Read-outs that look alike come from different tables or passages of the source. Numbered stars: 1 amine (or outer) side, 2 acyl side, 3 side chain; on linkers, the order of the positions; unused ones are H or OH. Square brackets hold non-standard residues; d marks the D form. Side chains are listed from the residue outwards. Peptide text beside a SMILES is read from it. * marks the point of attachment. C20 diacid = O=C(O)CCCCCCCCCCCCCCCCCCC(=O)*; γGlu = O=C(O)[C@H](CCC(=O)[*:2])N[*:1]; AEEA = NCCOCCOCC(=O)O; Aib = CC(C)(N)C(=O)O

Key:
GLP1R = GLP1R (Homo sapiens, UniProt P43220); test: hGLP1R potency, cAMP accumulation in CHO-K1 cells stably overexpressing hGLP1R; assay type: cell-based; design: host or cells: CHO-K1; conditions: for EC50: cAMP accumulation, CHO-K1 cells overexpressing hGLP1R; for SCTR EC50/GLP1R EC50 ratio: selectivity for hGLP1R over hSCTR, cAMP accumulation in CHO-K1 cells
GLP1R, sequence (P43220 24-463): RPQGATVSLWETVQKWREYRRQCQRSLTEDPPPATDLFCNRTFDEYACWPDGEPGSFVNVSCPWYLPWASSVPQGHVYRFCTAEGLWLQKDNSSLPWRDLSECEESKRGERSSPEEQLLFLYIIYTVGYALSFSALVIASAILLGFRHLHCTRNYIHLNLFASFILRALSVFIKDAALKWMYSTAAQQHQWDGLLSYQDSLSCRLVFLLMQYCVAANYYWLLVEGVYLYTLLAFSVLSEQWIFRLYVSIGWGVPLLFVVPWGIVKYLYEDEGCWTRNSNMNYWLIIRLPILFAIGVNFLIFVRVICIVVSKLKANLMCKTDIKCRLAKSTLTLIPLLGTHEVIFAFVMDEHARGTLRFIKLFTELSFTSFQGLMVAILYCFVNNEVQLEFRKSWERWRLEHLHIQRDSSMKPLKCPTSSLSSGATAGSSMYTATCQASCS
Procedure, shortened: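 2000 cells/well, DPBS + 0.05% casein + 0.5 mM IBMX; 30 min RT stimulation; HTRF cAMP detection after 1 h. Purified: 3-fold ×11, n=2; crude: 10-fold ×5, n=1. EC50 by variable-slope fit.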

SCTR = SCTR (Homo sapiens, UniProt P47872); test: hSCTR potency, cAMP accumulation in CHO-K1 cells stably overexpressing hSCTR; assay type: cell-based; design: alternatively Euroscreen ES-712-AF; FAST-0161L; host or cells: CHO-K1; conditions: cAMP accumulation, CHO-K1 cells overexpressing hSCTR
SCTR, sequence (P47872 23-440): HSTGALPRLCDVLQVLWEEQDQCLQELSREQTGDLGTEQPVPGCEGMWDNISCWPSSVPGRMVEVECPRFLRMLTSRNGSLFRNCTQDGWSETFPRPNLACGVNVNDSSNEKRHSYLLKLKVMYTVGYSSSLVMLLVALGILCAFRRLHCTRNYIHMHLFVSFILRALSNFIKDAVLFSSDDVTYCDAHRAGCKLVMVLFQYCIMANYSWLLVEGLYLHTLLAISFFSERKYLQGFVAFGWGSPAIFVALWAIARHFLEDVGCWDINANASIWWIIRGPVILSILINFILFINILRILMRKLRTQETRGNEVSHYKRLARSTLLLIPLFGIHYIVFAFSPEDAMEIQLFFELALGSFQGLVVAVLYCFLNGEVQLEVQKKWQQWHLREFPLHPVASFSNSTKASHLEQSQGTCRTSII
Procedure, shortened: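 Thawed CHO-K1 cells carrying stable hSCTR are plated into casein/IBMX buffer (0.05%, 0.5 mM), dosed immediately for 30 min at room temperature, then cAMP is detected by TR-FRET. Purified peptides run as 11 three-fold dilutions in duplicate, and curves are fitted with variable slope.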

[1] = Fibril formation of crude library peptides (Thioflavin T); assay type: physicochemical; design: key: average ThT fluorescence emission at 480 nm (ex 450 nm), raw units; conditions: Physical stability of peptides
Protocol: (§1) Peptides were dissolved in buffers (50 mM sodium acetate at pH 4.0, or 50 mM sodium phosphate at pH 7.0) to 267 μM and incubated for 1-2 hours at room temperature. The samples were then divided into two replicates of 80 μl in a black 384 well plate (μ-clear, Greiner Bio-One) and mixed with Thioflavin T (ThT) to a final concentration of 4 μM. The plate was centrifuged for 2 min at 2000 rpm to remove air bubbles, sealed, and placed in a plate reader (CLARIOstar, BMG). Firstly, turbidity of the samples was measured as the absorbance at 600 nm. Secondly, the plate reader temperature was set to 40° C. and the fluorescence was measured every 10 min for 72 hours by exciting the ThT at 450 nm and measuring the emission at 480 nm. Samples were stressed by shaking the plate at 700 rpm (linear) for five minutes before every measurement, and fibril formation was determined as the average emission for each sample.

[2] = Turbidity of crude library peptides (absorbance at 600 nm); assay type: physicochemical; conditions: Physical stability of peptides
Protocol: as §1

Selectivity (GLP1R; SCTR EC50/GLP1R EC50 ratio)	EC50 (GLP1R; read-out: pEC50 hGLPR1 (converted))	EC50 (SCTR; read-out: pEC50 hSCTR (converted))	Fibril formation [1]	Turbidity (pH 7) [2]	EC50 (GLP1R; read-out: hGLP1R pEC50 (converted))	SCTR EC50/GLP1R EC50 ratio (GLP1R)	EC50 (SCTR; read-out: hSCTR pEC50 (converted))	Structure (SMILES)
18030	0.0631 nM	1000 nM	10801	0.08	–	–	–	CC(C)C[C@H](NC(=O)[C@H](Cc1ccccc1)NC(=O)[C@H](CCCNC(=N)N)NC(=O)[C@H](CCC(N)=O)NC(=O)C(C)(C)NC(=O)[C@H](C)NC(=O)[C@H](C)NC(=O)C(C)(C)NC(=O)[C@H](CCC(=O)O)NC(=O)[C@H](CCCCNC(=O)COCCOCCNC(=O)COCCOCCNC(=O)CC[C@H](NC(=O)CCCCCCCCCCCCCCCCCCC(=O)O)C(=O)O)NC(=O)[C@H](CC(C)C)NC(=O)[C@H](CCC(=O)O)NC(=O)[C@H](CO)NC(=O)[C@@H](NC(=O)[C@H](CC(=O)O)NC(=O)[C@H](CO)NC(=O)[C@@H](NC(=O)[C@H](Cc1ccccc1)NC(=O)[C@@H](NC(=O)CNC(=O)[C@H](CCC(=O)O)NC(=O)C(C)(C)NC(=O)[C@@H](N)Cc1c[nH]cn1)[C@@H](C)O)[C@@H](C)O)C(C)C)C(=O)N[C@@H](CCC(=O)O)C(=O)N[C@@H](Cc1c[nH]cn1)C(=O)N[C@@H](CC(C)C)C(=O)N[C@H](C(N)=O)C(C)C [compound 7] (H-H[Aib]EGTFTSDVSELK([AEEA-AEEA-γGlu-C20 diacid])E[Aib]AA[Aib]QRFLEHLV-NH2)
–	–	–	41799	0.26	7.94 nM	253	2000 nM	CC[C@H](C)[C@H](NC(=O)[C@H](Cc1ccccc1)NC(=O)[C@H](CCCNC(=N)N)NC(=O)[C@H](CCC(N)=O)NC(=O)[C@H](CC(C)C)NC(=O)[C@H](C)NC(=O)[C@H](C)NC(=O)CNC(=O)[C@H](CCC(=O)O)NC(=O)[C@H](CC(C)C)NC(=O)[C@H](CC(C)C)NC(=O)[C@H](Cc1ccccc1)NC(=O)[C@H](CO)NC(=O)[C@@H]1CCCN1C(=O)[C@H](CC(=O)O)NC(=O)[C@H](CO)NC(=O)[C@@H](NC(=O)[C@H](Cc1ccccc1)NC(=O)[C@@H](NC(=O)CNC(=O)[C@H](CCC(=O)O)NC(=O)C(C)(C)NC(=O)[C@@H](N)Cc1c[nH]cn1)[C@@H](C)O)[C@@H](C)O)C(=O)N[C@@H](CCC(N)=O)C(=O)N[C@@H](Cc1c[nH]c2ccccc12)C(=O)N[C@@H](CC(C)C)C(=O)N[C@H](C(N)=O)C(C)C [compound 126] (H-H[Aib]EGTFTSDPSFLLEGAALQRFIQWLV-NH2)
–	–	–	3949	0.08	–	2941711	–	CC(C)C[C@H](NC(=O)[C@H](Cc1ccccc1)NC(=O)[C@H](CCCNC(=N)N)NC(=O)[C@H](CCC(N)=O)NC(=O)[C@H](CC(C)C)NC(=O)C(C)(C)NC(=O)[C@H](C)NC(=O)[C@H](CCC(=O)O)NC(=O)[C@H](CCC(=O)O)NC(=O)[C@H](CCCCNC(=O)COCCOCCNC(=O)COCCOCCNC(=O)CC[C@H](NC(=O)CCCCCCCCCCCCCCCCCCC(=O)O)C(=O)O)NC(=O)[C@H](CC(C)C)NC(=O)[C@H](Cc1ccc(O)cc1)NC(=O)[C@H](CO)NC(=O)[C@@H](NC(=O)[C@H](CC(=O)O)NC(=O)[C@H](CO)NC(=O)[C@@H](NC(=O)[C@H](Cc1ccccc1)NC(=O)[C@@H](NC(=O)CNC(=O)[C@H](CCC(N)=O)NC(=O)C(C)(C)NC(=O)[C@@H](N)Cc1c[nH]cn1)[C@@H](C)O)[C@@H](C)O)C(C)C)C(=O)N[C@@H](CCC(=O)O)C(=O)N[C@@H](Cc1c[nH]cn1)C(=O)N[C@@H](CC(C)C)C(=O)N[C@H](C(N)=O)C(C)C [compound 156] (H-H[Aib]QGTFTSDVSYLK([AEEA-AEEA-γGlu-C20 diacid])EEA[Aib]LQRFLEHLV-NH2)
